{"source": "paper PMC6704710", "about": "“Preclinical evaluation of 3D185, a novel potent inhibitor of FGFR1/2/3 and CSF-1R, in FGFR-dependent and macrophage-dominant cancer models” (Journal of Experimental & Clinical Cancer Research : CR, 2019)", "test_in_all_cases": "Eurofins kinase panel", "assay_type_in_all_cases": "biochemical", "details_in_all_cases": "read-out: Inhibition rate (%)", "key": {"[1]": {"target": "T1, BrSK1(h) (Homo sapiens, UniProt Q8TDC3)", "T1 construct": "purchased Eurofins (KinaseProfiler)", "T1 sequence (Q8TDC3 1-778)": "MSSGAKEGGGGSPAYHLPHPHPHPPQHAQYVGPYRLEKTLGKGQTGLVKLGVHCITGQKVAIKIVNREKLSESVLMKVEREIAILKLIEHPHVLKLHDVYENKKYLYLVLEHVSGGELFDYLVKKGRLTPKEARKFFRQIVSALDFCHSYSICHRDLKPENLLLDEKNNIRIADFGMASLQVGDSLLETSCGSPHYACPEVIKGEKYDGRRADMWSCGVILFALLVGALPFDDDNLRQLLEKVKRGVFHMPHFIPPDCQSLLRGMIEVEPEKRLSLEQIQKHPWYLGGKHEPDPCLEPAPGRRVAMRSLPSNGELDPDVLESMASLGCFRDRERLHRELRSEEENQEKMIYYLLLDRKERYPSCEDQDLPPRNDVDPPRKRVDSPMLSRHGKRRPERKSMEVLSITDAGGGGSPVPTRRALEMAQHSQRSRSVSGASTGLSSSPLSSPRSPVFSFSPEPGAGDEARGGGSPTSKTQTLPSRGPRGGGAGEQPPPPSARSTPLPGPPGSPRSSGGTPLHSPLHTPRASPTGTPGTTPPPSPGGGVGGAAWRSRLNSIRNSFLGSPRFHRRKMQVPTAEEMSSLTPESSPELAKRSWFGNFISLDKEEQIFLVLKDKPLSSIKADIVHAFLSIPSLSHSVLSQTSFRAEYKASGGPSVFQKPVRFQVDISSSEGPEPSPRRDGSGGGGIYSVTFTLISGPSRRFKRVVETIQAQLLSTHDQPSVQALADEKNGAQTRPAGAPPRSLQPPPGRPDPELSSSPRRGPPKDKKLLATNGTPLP"}, "[2]": {"target": "T2, Aurora-B(h) (Homo sapiens, UniProt Q96GD4)", "T2 construct": "purchased Eurofins (KinaseProfiler)", "T2 sequence (Q96GD4 whole entry)": "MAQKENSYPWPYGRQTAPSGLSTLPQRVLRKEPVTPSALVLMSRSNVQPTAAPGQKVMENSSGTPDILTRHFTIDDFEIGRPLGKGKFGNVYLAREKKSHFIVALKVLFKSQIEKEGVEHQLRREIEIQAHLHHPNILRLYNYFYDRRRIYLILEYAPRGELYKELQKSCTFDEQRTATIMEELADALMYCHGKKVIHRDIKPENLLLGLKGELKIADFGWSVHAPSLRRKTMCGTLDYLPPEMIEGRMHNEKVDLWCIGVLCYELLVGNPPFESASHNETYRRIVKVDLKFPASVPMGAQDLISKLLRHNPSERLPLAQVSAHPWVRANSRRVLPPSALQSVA"}, "[3]": {"target": "T3, Arg(h) (Homo sapiens, UniProt P42684)", "T3 construct": "purchased Eurofins (KinaseProfiler)"}, "[4]": {"target": "T4, ULK2(h) (Homo sapiens, UniProt Q8IYT8)", "T4 construct": "purchased Eurofins (KinaseProfiler)", "T4 sequence (Q8IYT8 1-1036)": "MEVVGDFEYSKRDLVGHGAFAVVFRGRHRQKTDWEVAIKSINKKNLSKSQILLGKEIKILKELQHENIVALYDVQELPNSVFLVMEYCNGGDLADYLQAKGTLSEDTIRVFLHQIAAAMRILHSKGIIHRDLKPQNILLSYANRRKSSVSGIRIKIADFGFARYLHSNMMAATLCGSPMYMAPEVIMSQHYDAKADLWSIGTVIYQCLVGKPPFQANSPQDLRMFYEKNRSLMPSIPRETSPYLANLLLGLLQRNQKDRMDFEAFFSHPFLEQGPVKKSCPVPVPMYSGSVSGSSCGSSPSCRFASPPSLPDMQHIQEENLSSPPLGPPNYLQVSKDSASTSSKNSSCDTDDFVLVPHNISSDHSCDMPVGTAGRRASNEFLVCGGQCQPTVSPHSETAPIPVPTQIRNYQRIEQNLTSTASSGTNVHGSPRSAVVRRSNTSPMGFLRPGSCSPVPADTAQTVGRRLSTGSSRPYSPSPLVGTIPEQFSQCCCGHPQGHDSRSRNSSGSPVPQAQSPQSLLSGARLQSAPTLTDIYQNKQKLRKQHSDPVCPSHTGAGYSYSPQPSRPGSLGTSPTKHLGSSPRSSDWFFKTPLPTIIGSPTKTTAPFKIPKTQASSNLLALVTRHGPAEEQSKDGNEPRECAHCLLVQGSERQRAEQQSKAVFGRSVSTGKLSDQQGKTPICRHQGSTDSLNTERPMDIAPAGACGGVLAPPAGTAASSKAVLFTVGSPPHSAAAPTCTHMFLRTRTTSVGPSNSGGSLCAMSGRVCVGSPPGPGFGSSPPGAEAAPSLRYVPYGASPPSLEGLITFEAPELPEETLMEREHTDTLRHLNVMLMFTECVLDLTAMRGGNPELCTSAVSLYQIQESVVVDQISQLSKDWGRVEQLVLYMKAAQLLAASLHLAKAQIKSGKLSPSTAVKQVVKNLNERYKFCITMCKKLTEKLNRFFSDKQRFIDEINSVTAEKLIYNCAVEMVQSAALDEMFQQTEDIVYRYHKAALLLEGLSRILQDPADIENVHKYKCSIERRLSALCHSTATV"}, "[5]": {"target": "T5, IR(h) (Homo sapiens, UniProt P06213)", "T5 construct": "purchased Eurofins (KinaseProfiler)", "T5 sequence (P06213 28-1382)": "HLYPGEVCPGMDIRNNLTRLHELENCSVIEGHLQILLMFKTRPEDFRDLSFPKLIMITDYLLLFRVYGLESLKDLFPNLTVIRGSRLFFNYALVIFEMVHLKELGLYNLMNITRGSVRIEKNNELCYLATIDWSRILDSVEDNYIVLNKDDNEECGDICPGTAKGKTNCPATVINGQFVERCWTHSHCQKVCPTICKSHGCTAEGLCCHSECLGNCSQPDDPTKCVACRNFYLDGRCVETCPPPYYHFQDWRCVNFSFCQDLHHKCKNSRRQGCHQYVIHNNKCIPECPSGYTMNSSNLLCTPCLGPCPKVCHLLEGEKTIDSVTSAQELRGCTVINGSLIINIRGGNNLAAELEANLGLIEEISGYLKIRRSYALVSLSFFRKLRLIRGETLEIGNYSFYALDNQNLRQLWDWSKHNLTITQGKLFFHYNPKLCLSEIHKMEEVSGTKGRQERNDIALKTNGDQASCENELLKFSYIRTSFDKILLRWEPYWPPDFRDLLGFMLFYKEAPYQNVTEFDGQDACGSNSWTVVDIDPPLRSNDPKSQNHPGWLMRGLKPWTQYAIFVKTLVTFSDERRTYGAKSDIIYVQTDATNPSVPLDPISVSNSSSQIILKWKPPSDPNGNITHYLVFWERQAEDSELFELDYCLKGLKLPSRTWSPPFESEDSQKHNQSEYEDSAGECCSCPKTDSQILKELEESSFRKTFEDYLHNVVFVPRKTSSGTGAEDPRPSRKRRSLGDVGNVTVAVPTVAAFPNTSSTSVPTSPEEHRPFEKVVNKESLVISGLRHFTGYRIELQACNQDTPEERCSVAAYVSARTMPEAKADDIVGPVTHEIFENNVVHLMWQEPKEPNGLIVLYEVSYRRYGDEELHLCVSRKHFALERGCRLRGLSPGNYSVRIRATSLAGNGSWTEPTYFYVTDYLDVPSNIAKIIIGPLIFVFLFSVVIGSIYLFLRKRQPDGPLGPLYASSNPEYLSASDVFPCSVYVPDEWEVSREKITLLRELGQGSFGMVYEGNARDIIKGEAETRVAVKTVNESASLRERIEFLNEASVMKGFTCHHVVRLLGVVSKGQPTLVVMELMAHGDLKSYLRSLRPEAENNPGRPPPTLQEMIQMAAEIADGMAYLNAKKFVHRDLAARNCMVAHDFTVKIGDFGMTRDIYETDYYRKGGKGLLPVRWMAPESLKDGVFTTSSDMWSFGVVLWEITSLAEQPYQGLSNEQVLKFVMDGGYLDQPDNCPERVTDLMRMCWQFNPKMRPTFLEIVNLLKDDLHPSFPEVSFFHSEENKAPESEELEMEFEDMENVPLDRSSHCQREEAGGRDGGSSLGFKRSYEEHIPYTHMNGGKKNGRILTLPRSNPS"}, "[6]": {"target": "T6, SRPK1(h) (Homo sapiens, UniProt Q96SB4)", "T6 construct": "purchased Eurofins (KinaseProfiler)", "T6 sequence (Q96SB4 whole entry)": "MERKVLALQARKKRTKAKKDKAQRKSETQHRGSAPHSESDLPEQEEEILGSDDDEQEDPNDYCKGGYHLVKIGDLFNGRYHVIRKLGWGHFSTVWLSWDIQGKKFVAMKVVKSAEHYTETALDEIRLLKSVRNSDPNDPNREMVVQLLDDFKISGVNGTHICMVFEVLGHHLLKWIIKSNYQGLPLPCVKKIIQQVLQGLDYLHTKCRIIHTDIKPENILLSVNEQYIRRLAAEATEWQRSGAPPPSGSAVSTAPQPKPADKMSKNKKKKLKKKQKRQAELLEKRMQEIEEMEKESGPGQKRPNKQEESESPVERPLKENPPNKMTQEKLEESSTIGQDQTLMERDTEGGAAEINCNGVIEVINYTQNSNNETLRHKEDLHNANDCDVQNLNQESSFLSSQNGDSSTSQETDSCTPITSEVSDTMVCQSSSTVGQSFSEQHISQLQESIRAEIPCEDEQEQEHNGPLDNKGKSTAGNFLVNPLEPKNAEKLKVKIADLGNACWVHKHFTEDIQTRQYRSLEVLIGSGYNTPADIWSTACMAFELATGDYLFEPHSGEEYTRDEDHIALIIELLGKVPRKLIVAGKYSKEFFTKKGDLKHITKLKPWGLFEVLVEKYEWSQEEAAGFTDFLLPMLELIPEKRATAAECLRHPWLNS"}, "[7]": {"target": "T7, CHK2(h) (Homo sapiens, UniProt O96017)", "T7 construct": "purchased Eurofins (KinaseProfiler)", "T7 sequence (O96017 whole entry)": "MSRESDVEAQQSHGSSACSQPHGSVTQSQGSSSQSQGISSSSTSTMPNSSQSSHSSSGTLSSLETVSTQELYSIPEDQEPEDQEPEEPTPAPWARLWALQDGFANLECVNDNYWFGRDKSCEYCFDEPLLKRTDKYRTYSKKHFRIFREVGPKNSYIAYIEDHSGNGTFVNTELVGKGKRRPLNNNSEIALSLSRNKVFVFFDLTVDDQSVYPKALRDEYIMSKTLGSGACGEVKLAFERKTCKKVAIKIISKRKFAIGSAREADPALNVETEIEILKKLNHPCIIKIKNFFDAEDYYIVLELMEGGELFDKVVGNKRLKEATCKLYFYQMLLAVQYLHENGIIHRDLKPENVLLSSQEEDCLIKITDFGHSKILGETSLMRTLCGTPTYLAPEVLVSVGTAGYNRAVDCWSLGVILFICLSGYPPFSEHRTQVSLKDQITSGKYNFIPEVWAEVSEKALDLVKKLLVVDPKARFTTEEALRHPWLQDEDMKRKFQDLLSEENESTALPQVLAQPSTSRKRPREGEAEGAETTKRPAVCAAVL"}, "[8]": {"target": "T8, ALK(h) (Homo sapiens, UniProt Q9UM73)", "T8 construct": "purchased Eurofins (KinaseProfiler)", "T8 sequence (Q9UM73 19-1620)": "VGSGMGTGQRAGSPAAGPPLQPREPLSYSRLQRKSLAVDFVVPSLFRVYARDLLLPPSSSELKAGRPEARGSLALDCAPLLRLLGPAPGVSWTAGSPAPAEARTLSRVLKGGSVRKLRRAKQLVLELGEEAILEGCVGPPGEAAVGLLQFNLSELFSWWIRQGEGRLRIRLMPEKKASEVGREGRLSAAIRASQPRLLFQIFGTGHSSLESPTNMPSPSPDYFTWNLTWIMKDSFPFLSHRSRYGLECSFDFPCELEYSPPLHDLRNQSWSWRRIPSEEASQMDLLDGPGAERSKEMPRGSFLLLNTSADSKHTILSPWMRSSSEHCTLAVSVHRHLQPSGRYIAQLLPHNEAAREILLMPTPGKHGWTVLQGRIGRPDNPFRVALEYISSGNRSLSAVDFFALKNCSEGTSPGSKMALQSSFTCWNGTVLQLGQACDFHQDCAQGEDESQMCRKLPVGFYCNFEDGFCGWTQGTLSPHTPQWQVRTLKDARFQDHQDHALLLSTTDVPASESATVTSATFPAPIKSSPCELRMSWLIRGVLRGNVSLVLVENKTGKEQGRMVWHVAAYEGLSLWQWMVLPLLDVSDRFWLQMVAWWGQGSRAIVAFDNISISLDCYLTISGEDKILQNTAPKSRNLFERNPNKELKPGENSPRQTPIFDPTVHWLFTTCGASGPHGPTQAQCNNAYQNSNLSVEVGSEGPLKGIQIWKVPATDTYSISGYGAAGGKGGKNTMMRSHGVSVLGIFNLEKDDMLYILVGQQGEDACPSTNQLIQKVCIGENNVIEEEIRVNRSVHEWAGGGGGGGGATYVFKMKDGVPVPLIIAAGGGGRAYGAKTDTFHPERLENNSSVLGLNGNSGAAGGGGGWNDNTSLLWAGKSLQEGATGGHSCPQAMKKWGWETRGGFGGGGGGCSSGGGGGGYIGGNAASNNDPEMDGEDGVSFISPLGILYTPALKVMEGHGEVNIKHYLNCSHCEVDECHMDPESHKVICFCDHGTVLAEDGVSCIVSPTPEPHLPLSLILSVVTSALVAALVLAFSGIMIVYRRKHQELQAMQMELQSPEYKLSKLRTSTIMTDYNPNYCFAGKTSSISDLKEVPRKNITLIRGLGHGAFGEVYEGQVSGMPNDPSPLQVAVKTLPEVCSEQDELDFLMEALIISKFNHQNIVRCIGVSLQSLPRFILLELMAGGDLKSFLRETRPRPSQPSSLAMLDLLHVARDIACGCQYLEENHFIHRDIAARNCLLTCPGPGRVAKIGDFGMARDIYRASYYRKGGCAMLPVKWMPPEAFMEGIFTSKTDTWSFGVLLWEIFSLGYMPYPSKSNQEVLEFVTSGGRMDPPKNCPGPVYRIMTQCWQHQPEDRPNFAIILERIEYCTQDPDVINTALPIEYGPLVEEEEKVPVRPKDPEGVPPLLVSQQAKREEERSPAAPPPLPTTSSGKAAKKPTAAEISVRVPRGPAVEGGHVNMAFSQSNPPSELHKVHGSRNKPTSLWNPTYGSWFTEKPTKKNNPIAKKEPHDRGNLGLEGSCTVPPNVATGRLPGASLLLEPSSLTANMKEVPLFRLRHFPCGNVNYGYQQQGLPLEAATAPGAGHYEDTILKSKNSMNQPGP"}}, "data": [{"compound": "COc1cc(OC)c(Cl)c(-c2ccc3c(NC(=O)c4ccc(N5CCNC(C)(C)C5)cc4)n[nH]c3n2)c1Cl", "note": "[3D185]", "values": [{"measurement": "inhibition at 0.01 µM", "setting": "[1]; 10 nM", "result": 13, "unit": "%"}, {"measurement": "inhibition at 0.1 µM", "setting": "[1]; 100 nM", "result": 11, "unit": "%"}, {"measurement": "inhibition at 1 µM", "setting": "[1]; 1000 nM", "result": 11, "unit": "%"}, {"measurement": "inhibition at 0.01 µM", "setting": "[2]; 10 nM", "result": 7, "unit": "%"}, {"measurement": "inhibition at 0.1 µM", "setting": "[2]; 100 nM", "result": -4, "unit": "%"}, {"measurement": "inhibition at 1 µM", "setting": "[2]; 1000 nM", "result": 5, "unit": "%"}, {"measurement": "inhibition at 0.01 µM", "setting": "[3]; 10 nM", "result": 2, "unit": "%"}, {"measurement": "inhibition at 0.1 µM", "setting": "[3]; 100 nM", "result": 36, "unit": "%"}, {"measurement": "inhibition at 1 µM", "setting": "[3]; 1000 nM", "result": 87, "unit": "%"}, {"measurement": "inhibition at 0.01 µM", "setting": "[4]; 10 nM", "result": 4, "unit": "%"}, {"measurement": "inhibition at 0.1 µM", "setting": "[4]; 100 nM", "result": 14, "unit": "%"}, {"measurement": "inhibition at 1 µM", "setting": "[4]; 1000 nM", "result": 22, "unit": "%"}, {"measurement": "inhibition at 0.01 µM", "setting": "[5]; 10 nM", "result": 16, "unit": "%"}, {"measurement": "inhibition at 0.1 µM", "setting": "[5]; 100 nM", "result": 32, "unit": "%"}, {"measurement": "inhibition at 1 µM", "setting": "[5]; 1000 nM", "result": 94, "unit": "%"}, {"measurement": "inhibition at 0.01 µM", "setting": "[6]; 10 nM", "result": 13, "unit": "%"}, {"measurement": "inhibition at 0.1 µM", "setting": "[6]; 100 nM", "result": 9, "unit": "%"}, {"measurement": "inhibition at 1 µM", "setting": "[6]; 1000 nM", "result": 12, "unit": "%"}, {"measurement": "inhibition at 0.01 µM", "setting": "[7]; 10 nM", "result": 0, "unit": "%"}, {"measurement": "inhibition at 0.1 µM", "setting": "[7]; 100 nM", "result": 4, "unit": "%"}, {"measurement": "inhibition at 1 µM", "setting": "[7]; 1000 nM", "result": 11, "unit": "%"}, {"measurement": "inhibition at 0.01 µM", "setting": "[8]; 10 nM", "result": -1, "unit": "%"}, {"measurement": "inhibition at 0.1 µM", "setting": "[8]; 100 nM", "result": 35, "unit": "%"}, {"measurement": "inhibition at 1 µM", "setting": "[8]; 1000 nM", "result": 82, "unit": "%"}]}]}
